For 29 molecules, IC50 results are on record in patent US5420128A, “Pyrimidine derivatives, method of manufacturing the same, and androgen inhibitor” (Otsuka Pharmaceutical Co., Ltd., priority 1990, dated 1995).

The structures appear in SMILES notation.

A word on the IC50: it is the concentration at which inhibition is half-maximal.

The experiment has as its target T1, rat prostate androgen receptor (Rattus norvegicus, UniProt P15207).
T1 construct: the supernatant was obtained as cytoplasm fraction; from tissue; host or cells: cytosol (105000×g supernatant) of rat ventral prostate, 24 hours after castration
T1 sequence (P15207 1-902): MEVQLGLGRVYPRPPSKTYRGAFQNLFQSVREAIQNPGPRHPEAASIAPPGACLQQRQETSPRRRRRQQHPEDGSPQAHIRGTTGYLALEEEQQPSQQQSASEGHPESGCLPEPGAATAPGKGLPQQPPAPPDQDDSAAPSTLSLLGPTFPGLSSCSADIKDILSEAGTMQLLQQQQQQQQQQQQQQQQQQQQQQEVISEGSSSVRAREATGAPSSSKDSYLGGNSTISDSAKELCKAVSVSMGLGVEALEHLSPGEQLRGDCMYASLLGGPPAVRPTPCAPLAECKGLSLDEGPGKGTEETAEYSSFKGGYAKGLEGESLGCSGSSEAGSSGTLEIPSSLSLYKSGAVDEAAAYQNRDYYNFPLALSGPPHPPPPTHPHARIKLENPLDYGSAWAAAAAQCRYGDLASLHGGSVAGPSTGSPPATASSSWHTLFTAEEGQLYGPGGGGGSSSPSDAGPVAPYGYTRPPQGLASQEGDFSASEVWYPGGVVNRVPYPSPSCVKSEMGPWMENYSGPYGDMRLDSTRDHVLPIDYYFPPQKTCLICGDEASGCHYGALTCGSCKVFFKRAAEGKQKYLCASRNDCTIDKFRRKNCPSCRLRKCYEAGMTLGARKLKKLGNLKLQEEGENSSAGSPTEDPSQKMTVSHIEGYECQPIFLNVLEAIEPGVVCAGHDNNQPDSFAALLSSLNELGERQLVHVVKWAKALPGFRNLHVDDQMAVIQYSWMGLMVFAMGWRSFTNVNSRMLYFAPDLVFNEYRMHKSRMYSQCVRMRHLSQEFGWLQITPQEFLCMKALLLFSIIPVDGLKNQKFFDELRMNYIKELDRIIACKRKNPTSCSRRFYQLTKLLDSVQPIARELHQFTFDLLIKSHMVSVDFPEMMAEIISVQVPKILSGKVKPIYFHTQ
The experiment in a line: inhibitory activity on binding of ^3 H-mibolerone on rat prostate androgen receptor. The settings on record: ^3 H-mibolerone 1 nM, triamcinolone acetonide 5 μM, rat ventral prostate cytosol, 20 hours at 0° C.; read-out: Inhibitory activity on mibolerone specific binding [IC50 (M)].
Procedure: B. Measurement of inhibitory activity on binding of ^3 H-mibolerone on rat prostate androgen receptor
(1) Preparation of cytosol from rat prostate
The rat was sacrificed 24 hours after castration, and the ventral lobe of prostate was removed, and was gently homogenized, in ice-cooling water bath, at first by using Polytron and then using Potter type homogenizer, in three-fold amount of buffer solution A (1.5 mM EDTA, 2 mM dithiothreitol, 10 mM molybdate sodium, 10 % by volume of glycerol, 10 mM NaF, 25 mM phosphate sodium, pH 7.2). The obtained homogenate was filtrated through double gauze, and centrifuged at 105000×g for 60 minutes at 4° C., and the supernatant was obtained as cytoplasm fraction.
(2) Measurement of specific binding of ^3 H-mibolerone on prostate cytoplasm androgen receptor
To the cytoplasm fraction obtained in (1), ^3 H-mibolerone (87.0 Ci/mmol) was added, so that a final concentration is adjusted to 1 nM, and at the same time, in order to inhibit binding of ^3 H-mibolerone to progestin receptor, triamsinolone acetonide was added to a final concentration of 5 μM, and the final volume was adjusted to 0.4 ml with buffer solution A, and the reaction mixture was incubated for 20 hours at 0° C. After incubation, 0.5 ml of 60% hydroxylapatite slurry (washed and equilibrate with a buffer solution B: 10 mM NaH2 P04, 20 mM tris-hydrochloric acid, pH 7.2) was added, and incubated for 10 minutes at 0° C., the solution was transferred onto a glass fiber filter, and washed five times with 5 ml portions of buffer solution B containing 0.1% (weight/volume) of Triton X-100, to remove free ^3 H-mibolerone. This glass fiber was transferred into vial, and 10 ml of aquasol-2 was added, and the radioactivity was measured, and the total binding amount of ^3 H-mibolerone on prostate cytoplasm androgen receptor was determined.
The nonspecific binding amount was determined similarly by adding an unlabeled 5α-DHT in the reaction solution to a final concentration of 1 μM. The difference between the total binding amount and nonspecific binding amount was determined as the specific binding amount on the androgen receptor.
(3) Inhibitory activity of sample compounds on ^3 H-mibolerone specific binding
The compounds obtained in the experiments were added simultaneously with ^3 H-mibolerone at different concentrations to incubate same as in (2), and the specific binding amount of 3H-mibolerone on androgen receptor was determined. Comparing this value with the value obtained in (2), the IC50 value of inhibitory activity of the compounds on ^3 H-mibolerone specific binding was determined.
Regarding `Cc1cnc2c(-c3ccc(Sc4ccccc4)cc3)cnn2c1O` [Example 24, 7-Hydroxy-6-methyl-3-(4-phenylthiophenyl)pyrazolo[1,5-a]pyrimidine], the half-inhibitory concentration (IC50) was determined as 6.4e-08 M.

`O=C(O)Cc1cnc2c(-c3ccc(Sc4ccccc4)cc3)cnn2c1O` [Example 40, 7-Hydroxy-6-carboxymethyl-3-(4-phenylthiophenyl)pyrazolo[1,5-a]pyrimidine]: the IC50 stood at 2.2e-08 M.

As to `Oc1ccccc1-c1cnc2c(-c3ccc(Sc4ccccc4)cc3)cnn2c1O` [Example 64, 7-Hydroxy-6-(2-hydroxyphenyl)-3-(4-phenylthiophenyl)pyrazolo[1,5-a]pyrimidine], the IC50 was 7.4e-07 M.

In the case of `Oc1ccccc1Cc1cnc2c(-c3ccc(Sc4ccccc4)cc3)cnn2c1O` [Example 61, 7-Hydroxy-6-(2-hydroxyphenylmethyl)-3-(4-phenylthiophenyl)pyrazolo[1,5-a]pyrimidine], the IC50 came out at 1.6e-07 M.

`Oc1cccc(-c2cnc3c(-c4ccc(Sc5ccccc5)cc4)cnn3c2O)c1` [Example 65, 7-Hydroxy-6-(3-hydroxyphenyl)-3-(4-phenylthiophenyl)pyrazolo[1,5-a]pyrimidine]: the half-maximal inhibitory concentration (IC50) turned out to be 1.4e-07 M.

On to `CC(C)c1cc(O)n2ncc(-c3ccc(Sc4ccccc4)cc3)c2n1` [Example 7, 7-Hydroxy-5-isopropyl-3-(4-phenylthiophenyl)pyrazolo[1,5-a]pyrimidine], for which the half-inhibitory concentration (IC50) stood at 1.3e-05 M.

In the case of `O=C(O)c1cnc2c(-c3ccc(Sc4ccccc4)cc3)cnn2c1O` [Example 38, 7-Hydroxy-6-carboxy-3-(4-phenylthiophenyl)pyrazolo[1,5-a]pyrimidine], the 50% inhibitory concentration (IC50) worked out at 5.8e-08 M.

With `CC(C)c1cnc2c(-c3ccc(Sc4ccccc4)cc3)cnn2c1O` [Example 26, 7-Hydroxy-6-isopropyl-3-(4-phenylthiophenyl)pyrazolo[1,5-a]pyrimidine], the IC50 is 1.8e-07 M.

As for `CCOC(=O)c1cnc2c(-c3ccc(Sc4ccccc4)c(OC)c3)cnn2c1O` [Example 14, 7-Hydroxy-6-ethoxycarbonyl-3-(3-methoxy-4-phenylthiophenyl)pyrazolo[1,5-a]pyrimidine], the concentration for half-maximal inhibition (IC50) turned out to be 2e-07 M.

Consider `Oc1cccc(Cc2cnc3c(-c4ccc(Sc5ccccc5)cc4)cnn3c2O)c1` [Example 62, 7-Hydroxy-6-(3-hydroxyphenylmethyl)-3-(4-phenylthiophenyl)pyrazolo[1,5-a]pyrimidine], for which the concentration for half-maximal inhibition (IC50) worked out at 1.2e-07 M.

For `Oc1c(Cc2ccccc2)cnc2c(-c3ccc(Sc4ccccc4)cc3)cnn12` [Example 29, 7-Hydroxy-6-benzyl-3-(4-phenylthiophenyl)prazolo[1,5-a]pyrimidine], the half-maximal inhibitory concentration (IC50) turned out to be 2.5e-08 M.

`Cc1cc(-c2cnn3c(O)ccnc23)ccc1Sc1ccccc1` [Example 76, 7-Hydroxy-3-(3-methyl-4-phenylthiophenyl)pyrazolo[1,5-a]pyrimidine]: the 50% inhibitory concentration (IC50) was determined as 2.3e-08 M.

Take `Oc1c(-c2cccc(F)c2)cnc2c(-c3ccc(Sc4ccccc4)cc3)cnn12` [Example 56, 7-Hydroxy-6-(3-fluorophepyl)-3-(4-phenylthiophenyl)pyrazolo[1,5-a]pyrimidine]: the IC50 was 1.2e-07 M.

Regarding `Oc1c(Br)cnc2c(-c3ccc(Sc4ccccc4)cc3)cnn12` [Example 35, 7-Hydroxy-6-bromo-3-(4-phenylthiophenyl)pyrazolo[1,5a]pyrimidine], the IC50 was found to be 8.8e-08 M.

In the case of `Oc1c2c(nc3c(-c4ccc(Sc5ccccc5)cc4)cnn13)CCCC2` [Example 12, 9-Hydroxy-3-(4-phenylthiophenyl)-5,6,7,8-tetrahydropyrazolo[5,1-b]quinazoline], the 50% inhibitory concentration (IC50) is > 5e-06 M.

As for `Oc1ccc(Cc2cnc3c(-c4ccc(Sc5ccccc5)cc4)cnn3c2O)cc1` [Example 63, 7-Hydroxy-6-(4-hydroxyphenylmethyl)-3-(4-phenylthiophenyl)pyrazolo[1,5-a]pyrimidine], the IC50 is > 5e-06 M.

Take `Oc1cc(-c2ccccc2)nc2c(-c3ccc(Sc4ccccc4)cc3)cnn12` [Example 10, 7-Hydroxy-5-phenyl-3-(4-phenylthiophenyl)pyrazolo[1,5-a]pyrimidine]: the half-maximal inhibitory concentration (IC50) is > 5e-06 M.

With `Oc1cc(C2CC2)nc2c(-c3ccc(Sc4ccccc4)cc3)cnn12` [Example 8, 7-Hydroxy-5-cyclopropyl-3-(4-phenylthiophenyl)pyrazolo[1,5-a]pyrimidine], the IC50 was 1.7e-06 M.

For the molecule `COc1ccccc1Cc1cnc2c(-c3ccc(Sc4ccccc4)cc3)cnn2c1O` [Example 30, 7-Hydroxy-6-(2-methoxyphenylmethyl)-3-(4-phenylthiophenyl)pyrazolo[1,5-a]pyrimidine], the IC50 was determined as 3.2e-07 M.

Regarding `c1ccc(Sc2ccc(-c3cnn4cccnc34)cc2)cc1` [Example 49, 3-(4-phenylthiophenyl)pyrazolo[1,5-a]pyrimidine], the IC50 is > 5e-06 M.

For `Oc1ccc(-c2cnc3c(-c4ccc(Sc5ccccc5)cc4)cnn3c2O)cc1` [Example 66, 7-Hydroxy-6-(4-hydroxyphenyl)-3-(4-phenylthiophenyl)pyrazolo[1,5-a]pyrimidine], the IC50 is 1.6e-07 M.

On to `O=C(c1ccccc1)c1cnc2c(-c3ccc(Sc4ccccc4)cc3)cnn2c1O` [Example 68, 7-Hydroxy-6-benzoyl-3-(4-phenylthiophenyl)pyrazolo[1,5-a]pyrimidine], for which the IC50 worked out at 1.3e-06 M.

As to `COc1ccccc1-c1cnc2c(-c3ccc(Sc4ccccc4)cc3)cnn2c1O` [Example 53, 7-Hydroxy-6-(2-methoxyphenyl)-3-(4-phenylthiophenyl)pyrazolo[1,5-a]pyrimidine], the IC50 worked out at 3e-07 M.

Take `Oc1cc(CCl)nc2c(-c3ccc(Sc4ccccc4)cc3)cnn12` [Example 9, 7-Hydroxy-5-chloromethyl-3-(4-phenylthiophenyl)pyrazolo[1,5-a]pyrimidine]: the concentration for half-maximal inhibition (IC50) came to 3.1e-05 M.

`COc1cc(-c2cnn3c(O)ccnc23)ccc1Sc1ccccc1` [Example 15, 7-Hydroxy-3-(3-methoxy-4-penylthiophenyl)pyrazolo[1,5-a]pyrimidine]: the 50% inhibitory concentration (IC50) stood at 1.5e-07 M.

For `CC(C)(C)NC(=O)c1cnc2c(-c3ccc(Sc4ccccc4)cc3)cnn2c1O` [Example 46, 7-Hydroxy-3-(4-phenylthiophenyl)-6-(N-t-butyl)carbamoylpyrazolo[1,5-a]pyrimidine], the concentration for half-maximal inhibition (IC50) was 1.7e-07 M.

With `NC(=O)c1cnc2c(-c3ccc(Sc4ccccc4)cc3)cnn2c1O` [Example 43], the IC50 came out at 7.6e-08 M.

With `COc1ccc(-c2cnc3c(-c4ccc(Sc5ccccc5)cc4)cnn3c2O)cc1` [Example 52, 7-Hydroxy-6-(4-methoxyphenyl)-3-(4-phenylthiophenyl)pyrazolo[1,5-a]pyrimidine], the IC50 came to 2.3e-07 M.

Turning to `Oc1c(C2CCCCC2)cnc2c(-c3ccc(Sc4ccccc4)cc3)cnn12` [Example 27, 7-Hydroxy-6-cyclohexyl-3-(4-phenylthiophenyl)pyrazolo[1,5-a]pyrimidine], the half-inhibitory concentration (IC50) was determined as 1.3e-07 M.
